Where two headings read alike, the source gives them in different places.
Experiments:
[1] = system: phosphorylation of AKT on Ser473 as a readout of the PI3K pathway in SKBR3 (PIK3CA WT) cells; experiment: PI3K pathway activation assay, pAKT Ser473 HTRF, SKBR3 cells; format: cell-based; conditions: two hours of treatment
Description: The inhibitory activity of compounds was evaluated by measuring phosphorylation of AKT on Ser473 as a readout of the PI3K pathway using HTRF (CisBio catalog number: 64AKSPE). These studies were conducted in the T-47D (heterozygous PIK3CA H1047R) and SKBR3 (PIK3CA WT) cell lines. Cells were maintained in a 37° C. incubator at 5% CO2 in the following media: T-47D: RPMI 1640, ATCC© Modification (Gibco, A10491-01) supplemented with 10% v/v FBS (Gibco, 26140-079), 1% penicillin streptomycin (Gibco, 15140-122), and 7.4 ug/mL insulin (MilliporeSigma, I9278); SKBR3: McCoy's 5a (Modified) Medium (Gibco, 16600-082) supplemented with 10% v/v FBS (Gibco, 26140-079). Cells were seeded in 384-well plates at a density of 4,000 cells/well. Compounds dissolved in DMSO were added using a digital dispense (D300E, Tecan) 10-point serial dilution. After two hours of treatment, cells were lysed for thirty minutes and then incubated with detection reagents per HTRF kit material and manufacturer's instructions. Fluorescence signal was measured with a multimode plate reader (Envision 2105, Perkin Elmer). Fluorescent signal was normalized to background and DMSO controls to obtain percent inhibition/activity for each compound.

[2] = system: phosphorylation of AKT on Ser473 as a readout of the PI3K pathway in T-47D (heterozygous PIK3CA H1047R) cells; experiment: PI3K pathway activation assay, pAKT Ser473 HTRF, T-47D cells; format: cell-based; conditions: two hours of treatment
Method in brief: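 pAKT Ser473 measured by HTRF in SKBR3 (PIK3CA WT) and T-47D (PIK3CA H1047R) cells, 4,000/well. Signal normalised to background and DMSO controls as percent inhibition.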

SMILES | IC50 ([1]; Homo sapiens, SK-BR-3, 2 h) [µM] | IC50 ([2]; Homo sapiens, T47D, 2 h) [µM] | IC50 [1] [µM] | IC50 ([2]; read-out: T47D pAKT IC50) [µM]
Cc1cc(C(C)Nc2ccccc2-c2nnn[nH]2)c2nc(N3Cc4ccccc4C3)n(C)c(=O)c2c1 (stereo not drawn) [Example 9, 8-(1-((2-(1H-tetrazol-5-yl)phenyl)amino)ethyl)-2-(isoindolin-2-yl)-3,6-dimethylquinazolin-4(3H)-one] | > 10 | 0.5 to 10 |  | 
Cc1cc(C(C)Nc2ccccc2C(=O)O)c2nc(N3C[C@@H]4C(C(=O)N(C)C5CCC5)[C@@H]4C3)n(C)c(=O)c2c1 (stereo partly drawn) [Example 82, 2-((1-(2-((1R,5S,6R)-6-(Cyclobutyl(methyl)carbamoyl)-3-azabicyclo[3.1.0]hexan-3-yl)-3,6-dimethyl-4-oxo-3,4-dihydroquinazolin-8-yl)ethyl)amino)benzoic acid] |  |  | > 10 | < 0.5
Cc1cc(C(C)Nc2ccccc2C(=O)O)c2nc(N3C[C@@H]4C(NC(=O)OC5CC5)[C@@H]4C3)n(C)c(=O)c2c1 (stereo partly drawn) [Example 63, 2-((1-(2-((1R,5S,6s)-6-((cyclopropoxycarbonyl)amino)-3-azabicyclo[3.1.0]hexan-3-yl)-3,6-dimethyl-4-oxo-3,4-dihydroquinazolin-8-yl)ethyl)amino)benzoic acid] |  |  |  | 0.5 to 10
Cc1cc(C(C)Nc2ccccc2C(=O)O)c2nc(N3CCC(c4ccccc4)C3)n(C)c(=O)c2c1 (single isomer, unassigned) [Example 52, 2-[1-[3,6-dimethyl-4-oxo-2-(3-phenylpyrrolidin-1-yl)quinazolin-8-yl]ethylamino]benzoic acid] |  | 0.5 to 10 |  | 
COc1ccc(NC(C)c2cc(C)cc3c(=O)n(C)c(N4CC5CC5C4)nc23)c(C(=O)O)c1 (stereo not drawn) [Example 122, 2-[1-[2-(3-Azabicyclo[3.1.0]hexan-3-yl)-3,6-dimethyl-4-oxoquinazolin-8-yl]ethylamino]-5-methoxybenzoic acid] |  | 0.5 to 10 |  | 
Cc1cc(C(C)Nc2ccccc2C(=O)O)c2nc(N3CC4CCC3C4)n(C)c(=O)c2c1 (single isomer, unassigned) [Example 101, 2-((1-(2-(2-Azabicyclo[2.2.1]heptan-2-yl)-3,6-dimethyl-4-oxo-3,4-dihydro-quinazolin-8-yl)ethyl)amino)benzoic acid] |  |  |  | 0.5 to 10
Cc1cc(C(C)Nc2ccccc2C(=O)O)c2nc(N3CCN(C(=O)C45CC(F)(C4)C5)CC3)n(C)c(=O)c2c1 (stereo not drawn) [Example 92, 2-((1-(2-(4-(3-Fluorobicyclo[1.1.1]pentane-1-carbonyl)piperazin-1-yl)-3,6-dimethyl-4-oxo-3,4-dihydroquinazolin-8-yl)ethyl)amino)benzoic acid] |  | 0.5 to 10 |  | 
Cc1cc(C(C)Nc2ncccc2C(=O)O)c2nc(N3Cc4ccccc4C3)n(C)c(=O)c2c1 (stereo not drawn) [Example 36, 2-((1-(2-(isoindolin-2-yl)-3,6-dimethyl-4-oxo-3,4-dihydroquinazolin-8-yl)ethyl)amino)nicotinic acid] |  | 0.5 to 10 |  | 
Cc1cc(C(C)Nc2ccccc2C(=O)O)c2nc(O)n(C)c(=O)c2c1 (stereo not drawn) [Example 42, 2-((1-(2-hydroxy-3,6-dimethyl-4-oxo-3,4-dihydroquinazolin-8-yl)ethyl)amino) benzoic acid] |  | 0.5 to 10 |  | 
Cc1cc(C(C)Nc2ccccc2C(=O)O)c2nc(-c3ccn[nH]3)n(C)c(=O)c2c1 (stereo not drawn) [Example 25, 2-((1-(3,6-dimethyl-4-oxo-2-(1H-pyrazol-5-yl)-3,4-dihydroquinazolin-8-yl)ethyl)amino)benzoic acid] |  | 0.5 to 10 |  | 
Cc1cc(C(C)Nc2ccccc2C(=O)O)c2nc(N3CCc4ccccc4C3)n(C)c(=O)c2c1 (stereo not drawn) [Example 51, 2-[1-[2-(3,4-dihydro-1H-isoquinolin-2-yl)-3,6-dimethyl-4-oxoquinazolin-8-yl]ethylamino]benzoic acid] |  | 0.5 to 10 |  | 
Cc1cc(C(C)Nc2ccccc2C(=O)O)c2nc(N3CC4CC3CN4C(=O)OC(C)(C)C)n(C)c(=O)c2c1 (stereo not drawn) [Example 65, 2-((1-(2-(5-(tert-Butoxycarbonyl)-2,5-diazabicyclo[2.2.1]heptan-2-yl)-3,6-dimethyl-4-oxo-3,4-dihydroquinazolin-8-yl)ethyl)amino)benzoic acid] |  | 0.5 to 10 |  | 

Further lines, with some results ahead:

IC50 ([1]; Homo sapiens, SK-BR-3, 2 h) [µM] | IC50 ([2]; Homo sapiens, T47D, 2 h) [µM] | SMILES | IC50 [1] [µM] | IC50 ([2]; read-out: T47D pAKT IC50) [µM]
> 10 | < 0.5 | Cc1cc(C(C)Nc2ccccc2C(=O)O)c2nc(N3Cc4ccccc4C3)n(C3CC(CO)(CO)C3)c(=O)c2c1 (stereo not drawn) [Example 98, 2-((1-(3-(3,3-Bis(hydroxymethyl)cyclobutyl)-2-(isoindolin-2-yl)-6-methyl-4-oxo-3,4-dihydroquinazolin-8-yl)ethyl)amino)benzoic acid] |  | 
> 10 | < 0.5 | Cc1cc(C(C)Nc2ccccc2C(=O)O)c2nc(N3CCC4(CC4)C3)n(C)c(=O)c2c1 (stereo not drawn) [Example 39, 2-[1-[2-(5-azaspiro[2.4]heptan-5-yl)-3,6-dimethyl-4-oxoquinazolin-8-yl]ethyl-amino]benzoic acid] |  | 
> 10 | < 0.5 | Cc1cc(C(C)Nc2ccccc2C(=O)O)c2nc(N3CCCCCC3)n(C)c(=O)c2c1 (stereo not drawn) [Example 55, 2-((1-(2-(azepan-1-yl)-3,6-dimethyl-4-oxo-3,4-dihydroquinazolin-8-yl)ethyl)amino)benzoic acid] |  | 
> 10 | < 0.5 | CC(Nc1ccccc1C(=O)O)c1cc(F)cc2c(=O)n(C)c(N3CC4CC4C3)nc12 (stereo not drawn) [Example 49, 2-((1-(2-(3-azabicyclo[3.1.0]hexan-3-yl)-6-fluoro-3-methyl-4-oxo-3,4-dihydro-quinazolin-8-yl)ethyl)amino)benzoic acid] |  | 
> 10 | 0.5 to 10 | Cc1cc(C(C)Nc2ccccc2C(=O)NO)c2nc(N3Cc4ccccc4C3)n(C)c(=O)c2c1 (stereo not drawn) [Example 10, N-Hydroxy-2-((1-(2-(isoindolin-2-yl)-3,6-dimethyl-4-oxo-3,4-dihydroquinazolin-8-yl)ethyl)amino)benzamide] |  | 
> 10 | < 0.5 | Cc1cc(C(C)Nc2ccc(F)c(F)c2C(=O)O)c2nc(N3Cc4ccccc4C3)n(CCCF)c(=O)c2c1 (stereo not drawn) [Example 20, 2,3-difluoro-6-((1-(3-(3-fluoropropyl)-2-(isoindolin-2-yl)-6-methyl-4-oxo-3,4-dihydroquinazolin-8-yl)ethyl)amino)benzoic acid] |  | 
> 10 | < 0.5 | Cc1cc(C(C)Nc2ccccc2C(=O)O)c2nc(N3Cc4ccccc4C3)n(C(C)C)c(=O)c2c1 (single isomer, unassigned) [Example 27, 2-((1-(2-(isoindolin-2-yl)-3-isopropyl-6-methyl-4-oxo-3,4-dihydroquinazolin-8-yl)ethyl)amino)benzoic acid] |  | 
> 10 | < 0.5 | CC(Nc1ccccc1C(=O)O)c1cc(Cl)cc2c(=O)n(C)c(N3CC4CC4C3)nc12 (single isomer, unassigned) [Example 105, 2-((1-(2-(3-Azabicyclo[3.1.0]hexan-3-yl)-6-chloro-3-methyl-4-oxo-3,4-dihydroquinazolin-8-yl)ethyl)amino)benzoic acid] |  | 
> 10 | < 0.5 | Cc1cc(C(C)Nc2ccccc2C(=O)O)c2nc(N3Cc4ccccc4C3)n([C@H]3C[C@H](O)C3)c(=O)c2c1 (stereo partly drawn) [Example 48, 2-((1-(3-((1r,3r)-3-Hydroxycyclobutyl)-2-(isoindolin-2-yl)-6-methyl-4-oxo-3,4-dihydroquinazolin-8-yl)ethyl)amino)benzoic acid] |  | 
> 10 | 0.5 to 10 | CNS(=O)(=O)c1ccccc1NC(C)c1cc(C)cc2c(=O)n(C)c(N3Cc4ccccc4C3)nc12 (stereo not drawn) [Example 7, 2-((1-(2-(isoindolin-2-yl)-3,6-dimethyl-4-oxo-3,4-dihydroquinazolin-8-yl)ethyl)amino)-N-methylbenzenesulfonamide] |  | 
> 10 | 0.5 to 10 | Cc1ccc(C(=O)O)c(NC(C)c2cc(C)cc3c(=O)n(C)c(N4Cc5ccccc5C4)nc23)c1 (stereo not drawn) [Example 69, 2-((1-(2-(Isoindolin-2-yl)-3,6-dimethyl-4-oxo-3,4-dihydroquinazolin-8-yl)ethyl)amino)-4-methylbenzoic] |  | 
> 10 | < 0.5 | Cc1cc(C(C)Nc2ccccc2S(N)(=O)=O)c2nc(N3Cc4ccccc4C3)n(C)c(=O)c2c1 (stereo not drawn) [Example 6, 2-((1-(2-(isoindolin-2-yl)-3,6-dimethyl-4-oxo-3,4-dihydroquinazolin-8-yl)ethyl)amino)benzenesulfonamide] |  | 
> 10 | 0.5 to 10 | COc1ccc(NC(C)c2cc(C)cc3c(=O)n(C)c(N4CC5CC5C4)nc23)c(C(=O)O)n1 (stereo not drawn) [Example 119, 3-[1-[2-(3-Azabicyclo[3.1.0]hexan-3-yl)-3,6-dimethyl-4-oxoquinazolin-8-yl]ethylamino]-6-methoxypyridine-2-carboxylic acid] |  | 
> 10 | 0.5 to 10 | CSc1nc2c(C(C)Nc3ccccc3C(=O)O)cc(C)cc2c(=O)n1C (stereo not drawn) [Example 43, 2-[1-(3,6-dimethyl-2-methylsulfanyl-4-oxoquinazolin-8-yl)ethylamino]benzoic acid] |  | 
